Consider four compounds from article PMC7038240 (Antimicrobial Agents and Chemotherapy, 2020).

The subject of data set [1] is E. coli DH5α producing individual β-lactamases. Kind of data set: Broth microdilution MIC in engineered strains (BLI fixed at 4 μg/ml). It is filed as cell-based, Escherichia coli. As to conditions: panel of 34 strains. As to the method:
The spectrum of antibacterial activity of cefepime-taniborbactam and the breadth of inhibitory activity of this next-generation cyclic boronate BLI were assessed in 34 engineered E. coli strains each overproducing an individual β-lactamase and directly compared to those of the clinically approved agent ceftazidime-avibactam. In this manner, the antibacterial activity of the BL-BLI combinations relative to that of the partnered cephalosporins alone provided a quantitative measure of β-lactam potentiation that directly reflects the levels of inhibition of β-lactamase function achieved by addition of BLI. The BLI concentration was fixed at 4 μg/ml, as described in Materials and Methods.
The isogenic strains were used to establish a spectrum of inhibitory activity against 34 β-lactamases that were engineered into E. coli DH5α cells carrying chromosomal AmpC (ESC-1), a non-ESBL enzyme unable to hydrolyze these third- or fourth-generation cephalosporins. […]. The DNA fragments containing the promoter, the signal sequence, and each β-lactamase-coding gene were synthesized and cloned into pTwist Chlor High Copy in DH5α at Twist Bioscience. The individual expression plasmids along with their GenBank accession numbers are listed in Table S2 in the supplemental material and below. The protein sequences of β-lactamases were obtained from the Beta-Lactamase DataBase (www.bldb.eu) ([47]). Expression of the β-lactamases was confirmed by verifying decreased susceptibility to example test antibiotics that are known substrates of the enzymes. E. coli DH5α carrying pTU501, which expressed only the TEM-1 signal sequence from the bla promoter, was used as a control. The plasmid sequences are available through GenBank (Table S2).
(§1) The in vitro antibacterial activity of the β-lactams alone or in combination with the BLIs was determined in cation-adjusted Mueller-Hinton broth (CAMHB) microdilution assays according to CLSI recommendations ([51]). […]. The inocula for the broth microdilution assays were prepared by the broth culture method ([51]). […]
For orientation: In broth dilution the organism is exposed to a series of concentrations in liquid medium.

The target of data set [2] is T1, CTX-M-15 (Escherichia coli, UniProt Q9EXV5). The note with it: half-life of active-site occupancy.
Procedure: (§5) A reversible two-step inhibition model was fit to the data.
(§6) Pseudo-first-order rate constants of enzyme inactivation (kobs) were determined in the presence of various inhibitor concentrations by fitting equation 2 to the time courses.(2) P=Vst+(V0−Vs)(1−e^−kt)/k where P is product, Vs is rate at steady state, t is time, V0 is initial velocity, and k is rate of inactivation. A plot of kobs versus the inhibitor concentrations generated a linear plot with a slope of (k2/Ki) and a y intercept of k−2 (equation 3). The reported values were corrected for the substrate concentration and the Km for each substrate-enzyme combination, as defined by the 1 + ([S]/Km) term in equation 4, where S is the substrate concentration, used to obtain the second-order rate constant k2/Ki and the off rate (k−2). The error values reported are standard errors from the fit.(3) kobs=k−2+(k2/Ki)[I]/[1+([S]/Km)]
(§7) The percentage of enzyme activity at each assay point was determined by comparison to the activity of the enzyme in the absence of inhibitor, and the recovery of enzymatic activity was fit to a single exponential with the associated standard deviation.
Data set [3] deals with T2, KPC-2 (Klebsiella pneumoniae, UniProt Q9F663). The note with it: half-life of active-site occupancy.
Procedure: as §5, §6, §7
Data set [4] concerns the target T3, P99 AmpC (Enterobacter cloacae, UniProt P05364). As to conditions: half-life of active-site occupancy.
Procedure: as §5, §6, §7
Data set [5] concerns the target T1, CTX-M-15. Briefly: biochemical.
Procedure: as §5, §6, §7
Data set [6] concerns the target T3, P99 AmpC. Kind of data set: biochemical.
Procedure: as §5, §6, §7
The next data set addresses IMP-1 (Serratia marcescens, UniProt P52699). Kind of data set: Inhibition assay, nitrocefin substrate. The note with it: class B.
In a further data set the target is NDM-1 (Klebsiella pneumoniae, UniProt C7C422). Kind of data set: Steady-state competitive inhibition, cefotaxime substrate.
For the next data set, the target named is VIM-2 (Escherichia coli, UniProt Q5U7L7). Kind of data set: Steady-state competitive inhibition, nitrocefin substrate.
The test system of data set [7] is VIM-2 and NDM-1 metallo-β-lactamases. Briefly: Inhibition of VIM-2 and NDM-1 MBLs (modality, reversibility, range). As to conditions: up to 50 μM.
The subject of a further data set is E. coli. Kind of data set: microbe, parasite or virus in culture. As to conditions: Escherichia coli, read-out: MIC. In kind it is cell-based.
Excerpt: (§2) The antibacterial activity of cefepime-taniborbactam was compared to that of ceftazidime-avibactam, ceftolozane-tazobactam, and cefepime-tazobactam against a diverse panel of Enterobacterales and P. aeruginosa clinical isolates with defined β-lactamase subtypes (see Table S1 in the supplemental material). IMP-producing strains were excluded, as none of the BLI-protected cephalosporins inhibited IMP sufficiently to provide a clinically relevant rescue of the partner β-lactam, a characteristic also shared by approved BLI-protected carbapenems (meropenem-vaborbactam and imipenem-relebactam). […] The antibacterial activity of the cephalosporins alone was included to ascertain the level of potentiation by the partnered BLI. BLIs were tested at a fixed concentration of 4 μg/ml in all combinations except cefepime-tazobactam, where tazobactam was fixed at a concentration of 8 μg/ml ([38]). The collection comprised 143 clinical isolates collected from 2005 and 2018.
as §1

A further data set relates to K. pneumoniae. Briefly: microbe, parasite or virus in culture. In kind it is cell-based. As to conditions: Klebsiella pneumoniae, read-out: MIC.
Excerpt: as §2, §1

For the next data set, the system named is P. aeruginosa. Kind of data set: microbe, parasite or virus in culture. In kind it is cell-based. As to conditions: Pseudomonas aeruginosa, read-out: MIC.
Excerpt: as §2, §1

For data set [8], the system named is Enterobacterales clinical isolates. Briefly: MIC distributions in panels of clinical isolates (MIC50, MIC90, % susceptible). In kind it is cell-based. As to the method: (§3) The antibacterial activity of the cephalosporins alone was included to ascertain the level of potentiation by the partnered BLI. BLIs were tested at a fixed concentration of 4 μg/ml in all combinations except cefepime-tazobactam, where tazobactam was fixed at a concentration of 8 μg/ml ([38]).
(§4) The in vitro antibacterial activity of the β-lactams alone or in combination with the BLIs was determined in cation-adjusted Mueller-Hinton broth (CAMHB) microdilution assays according to CLSI recommendations ([51]). […] The inocula for the broth microdilution assays were prepared by the broth culture method ([51]).

The test system of data set [9] is P. aeruginosa clinical isolates. Kind of data set: microbe, parasite or virus in culture. It is filed as cell-based, Pseudomonas aeruginosa. As to the method:
as §3, §4

Data set [10] concerns E. coli, K. pneumoniae, and P. aeruginosa reference type isolates. Briefly: MIC against panel of seven reference type isolates. It is filed as cell-based. As to the method: […]. This panel encompassed 3 E. coli, 2 K. pneumoniae, and 2 P. aeruginosa isolates and included four quality control (QC) isolates for broth microdilution ([37]). […]. Among the β-lactamase-producing Enterobacterales isolates, E. coli NCTC 13353 producing CTX-M-15 and K. pneumoniae BAA-1705 producing KPC-2 are routine QC isolates used for the testing of cefepime-taniborbactam ([37]). […].
as §1

The test system of data set [11] is DrugMatrixScreen panel of pharmacological targets. Briefly: DrugMatrixScreen panel (binding, enzymatic, uptake assays; Eurofins/Panlabs). The note with it: 100 μM.
Data set [12] has as its target T2, KPC-2. Kind of data set: biochemical.
Procedure: as §5, §6, §7
The next data set concerns the target OXA-48 (Klebsiella pneumoniae, UniProt Q6XEC0). Kind of data set: Ki* determination, imipenem substrate.
In another data set the target is SHV-5 (Klebsiella pneumoniae, UniProt P0A3M1). Briefly: Ki* determination, cefotaxime substrate.
The subject of data set [13] is serine β-lactamases (SBLs). Briefly: Kinetic parameters and Ki, ranges over serine β-lactamases. As to conditions: CTX-M-15, P99 AmpC, and KPC-2.
Procedure: as §5, §6, §7

Like-named read-outs stand apart in the source and are kept apart here. A value given as a limit tells only on which side of the number the result lay.

IMP-1, sequence (P52699 19-246 limits assumed): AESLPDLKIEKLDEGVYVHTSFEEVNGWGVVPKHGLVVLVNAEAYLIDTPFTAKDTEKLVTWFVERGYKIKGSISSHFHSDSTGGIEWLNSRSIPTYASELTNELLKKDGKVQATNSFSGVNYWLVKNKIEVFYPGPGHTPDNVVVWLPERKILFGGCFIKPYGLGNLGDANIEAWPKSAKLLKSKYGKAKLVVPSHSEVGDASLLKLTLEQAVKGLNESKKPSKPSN
T3 sequence (P05364 21-381): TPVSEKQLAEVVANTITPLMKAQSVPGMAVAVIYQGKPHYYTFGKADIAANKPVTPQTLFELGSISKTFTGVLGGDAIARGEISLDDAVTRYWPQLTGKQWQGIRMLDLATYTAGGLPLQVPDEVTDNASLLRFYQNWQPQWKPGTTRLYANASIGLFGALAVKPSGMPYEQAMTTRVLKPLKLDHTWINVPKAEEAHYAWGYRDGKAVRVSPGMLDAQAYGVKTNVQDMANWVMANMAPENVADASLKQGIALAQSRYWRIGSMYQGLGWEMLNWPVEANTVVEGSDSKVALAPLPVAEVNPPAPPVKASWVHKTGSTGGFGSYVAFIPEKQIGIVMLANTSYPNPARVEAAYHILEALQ
T1 sequence (Q9EXV5 29-291, species assumed): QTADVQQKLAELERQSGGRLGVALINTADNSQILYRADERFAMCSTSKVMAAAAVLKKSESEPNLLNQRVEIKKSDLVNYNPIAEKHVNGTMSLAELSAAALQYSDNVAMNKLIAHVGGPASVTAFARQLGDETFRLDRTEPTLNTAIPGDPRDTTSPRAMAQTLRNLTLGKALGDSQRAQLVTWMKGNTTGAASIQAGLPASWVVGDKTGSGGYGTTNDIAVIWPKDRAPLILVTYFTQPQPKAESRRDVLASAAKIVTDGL
T2 sequence (Q9F663 25-293, looked up, species assumed): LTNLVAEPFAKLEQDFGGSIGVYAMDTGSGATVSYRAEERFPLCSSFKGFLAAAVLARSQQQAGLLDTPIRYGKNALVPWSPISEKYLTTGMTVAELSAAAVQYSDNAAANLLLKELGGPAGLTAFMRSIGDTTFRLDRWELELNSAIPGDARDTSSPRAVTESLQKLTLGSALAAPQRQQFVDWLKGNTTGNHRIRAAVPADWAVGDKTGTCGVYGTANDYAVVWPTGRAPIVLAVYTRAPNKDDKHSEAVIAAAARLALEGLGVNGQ
NDM-1, sequence (C7C422 29-270, looked up, species assumed): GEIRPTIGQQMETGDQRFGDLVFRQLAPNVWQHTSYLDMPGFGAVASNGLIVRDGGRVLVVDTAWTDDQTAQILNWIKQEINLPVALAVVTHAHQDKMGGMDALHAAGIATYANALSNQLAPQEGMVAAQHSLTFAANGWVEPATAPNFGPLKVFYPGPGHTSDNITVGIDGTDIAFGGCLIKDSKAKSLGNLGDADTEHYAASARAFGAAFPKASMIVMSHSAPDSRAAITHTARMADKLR
OXA-48, sequence (Q6XEC0 23-265, looked up, species assumed): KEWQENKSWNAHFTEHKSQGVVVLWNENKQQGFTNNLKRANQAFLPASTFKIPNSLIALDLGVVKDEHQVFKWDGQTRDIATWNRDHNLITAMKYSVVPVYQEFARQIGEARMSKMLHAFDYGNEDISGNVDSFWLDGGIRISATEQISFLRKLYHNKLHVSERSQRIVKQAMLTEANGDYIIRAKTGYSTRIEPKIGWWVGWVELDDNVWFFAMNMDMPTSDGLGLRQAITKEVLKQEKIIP
SHV-5, sequence (P0A3M1 22-286): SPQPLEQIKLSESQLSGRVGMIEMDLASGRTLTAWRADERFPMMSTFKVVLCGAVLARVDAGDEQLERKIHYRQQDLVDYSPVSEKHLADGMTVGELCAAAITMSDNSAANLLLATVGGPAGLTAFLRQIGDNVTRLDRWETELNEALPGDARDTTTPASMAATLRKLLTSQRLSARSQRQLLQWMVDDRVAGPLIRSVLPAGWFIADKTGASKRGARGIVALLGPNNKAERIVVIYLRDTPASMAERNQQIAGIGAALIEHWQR
Procedure for OXA-48: as §6
Procedure for SHV-5: as §6

For `NC(=O)[C@@H]1CC[C@@H]2CN1C(=O)N2OS(=O)(=O)O` [Avibactam], the “modal potentiation of partner cephalosporin MIC” value in data set [1] worked out at 64 fold. The t1/2 was 29 ± 1 min at CTX-M-15 [2], 66 ± 4 min on KPC-2 [3] and 249 ± 19 min at P99 AmpC [4]. The Ki (commonly a measure of affinity in units of concentration, obtained from inhibition or displacement) on CTX-M-15 [5] was 11 ± 1 nM; on P99 AmpC [6] it was 13 ± 0.3 nM; on IMP-1, over 30000 nM; on NDM-1 it was over 30000 nM; on VIM-2, over 30000 nM. Further, the “inhibition of MBLs” value in [7] was “no significant inhibition”.
For `NCCN[C@H]1CC[C@H](CC(=O)N[C@H]2Cc3cccc(C(=O)O)c3OB2O)CC1` [Taniborbactam], the “modal potentiation of partner cephalosporin MIC” value in data set [1] came to 512 fold. Also, the MIC in the data set with E. coli (ATCC25922, E. coli ATCC 25922, enzyme content None) stood at 512 µg/mL; in the data set on E. coli (E. coli CDC-0452, NDM) it was 512 µg/mL; with E. coli (NCTC13353, E. coli NCTC 13353, CTX-M-15), 512 µg/mL; with K. pneumoniae (ATCC13883, K. pneumoniae ATCC 13883, enzyme content None), 512 µg/mL; in the data set with K. pneumoniae (BAA1705, K. pneumoniae BAA 1705, KPC-2) it was 1020 µg/mL; with P. aeruginosa (ATCC27853, P. aeruginosa ATCC 27853, PDC-5), 1020 µg/mL. Besides, the MIC is 1020 µg/mL in the data set with P. aeruginosa (P. aeruginosa CDC-0457, VIM) and at least 512 µg/mL in data set [10]. In addition, the MIC90 in data set [8] was 1 µg/mL; in data set [9] (Pseudomonas aeruginosa, all 41 isolates of P. aeruginosa), 4 µg/mL. For the same compound, the antibacterial activity alone entry in [10] (taniborbactam alone) is given as “lacks antibacterial activity”. The “inhibition, off-target” value in [11] (128 of 129 in vitro assays) is given as at most 23%. Also, in data set [11] (the one exception, a β-lactamase), the inhibition – broadly, the change of the read-out against control, counted positive when it falls – is reported as over 50%. Also, the figures for the t1/2 at CTX-M-15 [2], on KPC-2 [3] and at P99 AmpC [4] were 34 ± 2 min, 105 ± 5 min and 30 ± 3 min, respectively. Moreover, the inhibition constant Ki on CTX-M-15 [5] was 17 ± 2 nM; at KPC-2 [12], 4 ± 1 nM; at P99 AmpC [6], 2 ± 0.3 nM; at OXA-48 it was 350 ± 7 nM; on IMP-1, at least 30000 nM; on SHV-5 it was 3 ± 0.2 nM. In addition, at VIM-2, the Ki was 19 ± 1 nM.
`O=C(O)C[C@@H]1CC[C@H](NC(=O)Cc2cccs2)B(O)O1` [Vaborbactam]: the t1/2 on CTX-M-15 [2] is 5 ± 0.2 min; at KPC-2 [3], 21 ± 2 min; at P99 AmpC [4] it was 32 ± 3 min. Moreover, the Ki on CTX-M-15 [5] was 158 ± 6 nM; on KPC-2 [12] it was 22 ± 2 nM; on P99 AmpC [6] it was 53 ± 4 nM; at OXA-48, 350 ± 7 nM; on IMP-1, over 30000 nM; at NDM-1, over 30000 nM. The Ki on VIM-2 is over 30000 nM. The koff (usually the first-order rate constant of dissociation) stood at 0.0023 ± 9e-05 s⁻¹ at CTX-M-15 [5], 0.00054 ± 5e-05 s⁻¹ on KPC-2 [12] and 0.00037 ± 3e-05 s⁻¹ on P99 AmpC [6]. Moreover, the kinact/KI at CTX-M-15 [5] (pH 7, read-out: k2/Ki) turned out to be 1100 ± 100 M⁻¹ s⁻¹; at KPC-2 [12] (pH 7, read-out: k2/Ki), 1200 ± 100 M⁻¹ s⁻¹; at P99 AmpC [6] (pH 7, read-out: k2/Ki), 1800 ± 100 M⁻¹ s⁻¹. Also, the “second-order rate constants (k2/Ki), order of magnitude” value in data set [13] is given as ~10^3 M^−1 s^−1. The “inhibition of MBLs” value in data set [7] is given as “no significant inhibition”.
Regarding `C[C@]1(Cn2ccnn2)[C@H](C(=O)O)N2C(=O)C[C@H]2S1(=O)=O` [tazobactam], in data set [9] (14 isolates, subdivision 3), the “fold reduction of cefepime MIC90 by addition of BLI” value was determined as 2 fold and the “fold reduction of ceftolozane MIC90 by addition of BLI” value turned out to be 4 fold.
